Test results taken from US5362744A, “Tetrazole-substituted urea acat inhibitors” (Warner-Lambert Company, priority 1993, dated 1994).

What was measured:
total cholesterol = test: in vivo screen designated APCC (total cholesterol in rats on PCC diet); parameters: species or system male Sprague-Dawley rats; settings: Rattus norvegicus, PCC diet overnight, read-out: APCC (%ΔTC): percent change in total cholesterol between control and drug-treated animals
Text: In one in vivo screen designated APCC, male Sprague-Dawley rats (200 to 225 g) were randomly divided into treatment groups and dosed at 4 PM with either vehicle (CMC/Tween) or suspensions of compounds in vehicle. The normal chow diet was then replaced with the PCC diet (5.5% peanut oil, 1.5% cholesterol, and 0.5% cholic acid). The rats consumed this diet ad libitum during the night and were sacrificed at 8 AM to obtain blood samples for cholesterol analysis using standard procedures. Statistical differences between mean cholesterol values for the same vehicle were determined using analysis of variance followed by Fisher's least significant test. The results of this trial for representative compounds of the present invention appear in Table II wherein percent change means the difference in total cholesterol between control, and the drug-treated animals.

adrenal gland = test: in vivo toxicity screen in guinea pigs (adrenal histopathology); parameters: species or system male guinea pigs of the Hartley strain; settings: 100 mg/kg daily by gavage, 2 weeks; for adrenal toxicity class: oleic acid vehicle
Procedure: The nontoxic nature of representative compounds of the present invention was measured and compared against previously disclosed tetrazole urea ACAT inhibitors using an in vivo toxicity screen developed by Dominick, et al., 1993. Male guinea pigs of the Hartley strain (450-500 g) were obtained from Charles River and randomly divided into treatment groups. They were fed standard guinea pig chow ad libitum and dosed daily (AM) by gavage (100 mg/kg). The test compounds were dissolved or suspended in an oleic acid vehicle to facilitate absorption. After 2 weeks the animals were sacrificed by CO2 asphyxiation in the nonfasted state 16 hours after the last dose. Adrenal glands were weighed, fixed in 10% formalin, processed by routine paraffin techniques, sectioned, and then stained with hematoxylin and eosin for light microscopy. Toxicity was defined by the incidence, severity, and complexity of adrenal histopathologic alterations in the zona fasciculata (e.g., adrenal cortical atrophy, increased coarse vacuolation, single cell necrosis, inflammatory cell infiltrates, mineralization/ectopic bone formation, and increased cytoplasmic eosinophilia).

| SMILES | change in vivo at 30 mg/kg (total cholesterol) | further results |
| --- | --- | --- |
| CC(C)c1cccc(C(C)C)c1NC(=O)N(c1ccccc1)c1nnn(CCCCCCCCOC2CCCCO2)n1 (racemic) [Example 10, (±)N'-[2,6-bis(1-methylethyl)phenyl]-N-phenyl-N-[2-[8-[(tetrahydro-2H-pyran-2-yl)oxy]octyl]-2H-tetrazol-5-yl]-urea] | -42% |  |
| CCCCCCCCCCCCn1nnc(N(C(=O)Nc2c(OC)cc(OC)cc2OC)c2ccccc2)n1 [Example 2, N-(2-dodecyl-2H-tetrazol-5-yl)-N-phenyl-N'-(2,4,6-trimethoxyphenyl)-urea] | -74% |  |
| CCCCCCCCCCCCn1nnc(NC(=O)Nc2c(C(C)C)cccc2C(C)C)n1 [N-[2,6-bis(1-methylethyl)-phenyl]-N'-(2-dodecyl-2H-tetrazol-5-yl)-urea] |  | cytotoxic zonal atrophy of the zona fasciculata (treated animals affected) (adrenal gland): 3/6; increased coarse vacuoles (animals affected) (adrenal gland): 5/6; inflammatory cell infiltrates (animals affected) (adrenal gland): 2/6; necrosis of the adrenal cortex (animals affected) (adrenal gland): 2/6; adrenal toxicity class (adrenal gland): highly toxic to the adrenal gland |
| CCCCCCCCCCCCn1nnc(N(C(=O)Nc2c(C(C)C)cccc2C(C)C)C2CCCCC2)n1 [Example 4, N'-[2,6-bis(1-methylethyl)phenyl]-N-cyclohexyl-N-(2-dodecyl-2H-tetrazol-5-yl)-urea] | -10% |  |
| CCCCCCCCCCCCn1nnc(N(C(=O)Nc2c(C(C)C)cccc2C(C)C)c2ccccc2)n1 [Example 1, N'-[2,6-Bis(1-methylethyl)phenyl]-N-(2-dodecyl-2H-tetrazol-5-yl)-N-phenyl-urea] | -52% |  |
| CCCCCCCCCCCCn1nnc(CN(Cc2ccccc2)C(=O)Nc2c(OC)cc(OC)cc2OC)n1 [Example 9, N-(2-Dodecyl-2H-tetrazol-5-ylmethyl)-N-(phenylmethyl)-N'-(2,4,6-trimethoxyphenyl)-urea] | -49% |  |
| COc1cc(OC)c(NC(=O)N(c2ccccc2)c2nnn(CCCCCCCCOC3CCCCO3)n2)c(OC)c1 (racemic) [Example 11, (±)N-phenyl-N-[2-[8-[(tetrahydro-2H-pyran-2-yl)oxy]octyl]-2H-tetrazol-5-yl]-N'-(2,4,6-trimethoxyphenyl)-urea] | -50% |  |
| COc1cc(OC)c(NC(=O)N(c2ccccc2)c2nnn(CCCCCCCCO)n2)c(OC)c1 [Example 14, N-[2-(8-hydroxyoctyl)-2H-tetrazol-5-yl]-N-phenyl-N'-(2,4,6-trimethoxyphenyl)-urea] | -15% |  |
| O=C(Nc1ccc(F)cc1F)N(c1ccccc1)c1nnn(CCCCCCCCOC2CCCCO2)n1 (racemic) [Example 12, (±)N'-(2,4-difluorophenyl)-N-phenyl-N-[2-[8-[(tetrahydro-2H-pyran-2-yl)oxy]octyl]-2H-tetrazol-5-yl]-urea] | -37% |  |
| CC(C)c1cccc(C(C)C)c1NC(=O)N(c1ccccc1)c1nnn(CCCCCCCC=O)n1 [Example 15, N'-[2,6-bis(1-methylethyl)phenyl]-N-[2-(8-oxooctyl)-2H-tetrazol-5-yl]-N-phenyl-urea] | -29% |  |
| CCCCCCCCCCCCCn1nnc(NC(=O)Nc2c(C(C)C)cccc2C(C)C)n1 [N-[2,6-bis(1-methylethyl)-phenyl]-N'-(2-tridecyl-2H-tetrazol-5-yl)-urea] |  | cytotoxic zonal atrophy of the zona fasciculata (treated animals affected) (adrenal gland): 4/6; increased coarse vacuoles (animals affected) (adrenal gland): 5/6; inflammatory cell infiltrates (animals affected) (adrenal gland): 2/6; necrosis of the adrenal cortex (animals affected) (adrenal gland): 3/6; adrenal toxicity class (adrenal gland): highly toxic to the adrenal gland |
| CCCCCCCCCCCCCCn1nnc(N(C(=O)Nc2c(OC)cc(OC)cc2OC)c2ccccc2)n1 [Example 7, N-phenyl-N-(2-tetradecyl-2H-tetrazol-5-yl)-N'-(2,4,6-trimethoxyphenyl)-urea] | -22% |  |
| CC(C)c1cccc(C(C)C)c1NC(=O)N(c1ccccc1)c1nnn(CCCCCCCCO)n1 [Example 13, N'-[2,6-Bis(1-methylethyl)phenyl]-N-[2-(8-hydroxyoctyl)-2H-tetrazol-5-yl]-N-phenyl-urea] | -17% |  |
| CCCCCCCCCCCCn1nnc(N(C(=O)Nc2ccc(F)cc2F)c2ccccc2)n1 [Example 3, N'-(2,4-Difluorophenyl)-N-(2-dodecyl-2H-tetrazol-5-yl)-N-phenyl-urea] | -63% |  |
| CCCCCCCCCCCCn1nnc(N(C(=O)Nc2c(OC)cc(OC)cc2OC)C2CCCCC2)n1 [Example 5, N-cyclohexyl-N-(2-dodecyl-2H-tetrazol-5-yl)-N'-(2,4,6-trimethoxyphenyl)-urea] | -67% | drug related adrenal changes (adrenal gland): no drug related adrenal changes; adrenal toxicity class (adrenal gland): nontoxic to the adrenal gland |
| CCCCCn1nnc(N(C(=O)Nc2c(OC)cc(OC)cc2OC)c2ccccc2)n1 [Example 8, N-(2-pentyl-2H-tetrazol-5-yl)-N-phenyl-N'-(2,4,6-trimethoxyphenyl)-urea] | -43% |  |
| COc1cc(OC)c(NC(=O)N(c2ccccc2)c2nnn(CCCCCCCC=O)n2)c(OC)c1 [Example 16, N-[2-(8-oxooctyl)-2H-tetrazol-5-yl]-N-phenyl-N'-(2,4,6-trimethoxyphenyl)-urea] | -8% |  |
| CCCCCCCCCCCCn1nnc(N(C(=O)Nc2ccc(F)cc2F)C2CCCCC2)n1 [Example 6, N-Cyclohexyl-N'-(2,4-difluorophenyl)-N-(2-dodecyl-2H-tetrazol-5-yl)-urea] | -33% |  |
| CCN(CC)CCCCCCCCn1nnc(N(C(=O)Nc2c(C(C)C)cccc2C(C)C)c2ccccc2)n1 [Example 17, N'-[2,6-bis(1-methylethyl)phenyl]-N-[2-[8-(diethylamino)octyl]-2H-tetrazol-5-yl]-N-phenyl-urea] | -30% |  |
